Measured values published in patent US20230212571A1, “COMPOSITIONS AND METHODS FOR DELIVERING POLYNUCLEOTIDES” (NeOnc Technologies, Inc., priority 2020, published 2023).

Tests used:
Type in all cases: cell-based, human
[1] = system: BEC; assay: RT-qPCR mRNA expression in control BEC
Excerpt: (§1) Human surgical specimens were obtained following written informed consent from patients in accordance with Declaration of Helsinki guidelines and the Institutional Review Board (HS-04B053), at Keck School of Medicine, USC. AVM-BECs were isolated from brain tissues of patients who underwent microsurgical AVM resection. Control BECs were isolated from the structurally normal […] of patients who underwent temporal lobectomy for intractable epilepsy. Endothelial cell (EC) isolation and culture were described^5,9. (Stapleton C J, Armstrong D L, Zidovetzki R, Liu C Y, Giannotta S L, Hofman F M. Thrombospondin-1 modulates the angiogenic phenotype of human cerebral arteriovenous malformation endothelial cells. Neurosurgery. 2011; 68(5):1342-1353) (Ferreira R, Santos T, Amar A, et al. Argonaute-2 promotes miR-18a entry in human brain endothelial cells. J Am Heart Assoc. 2014; 3(3):e000968) ECs were only used between passages 3-5. Experiments were performed under shear flow conditions (12 dyn/cm^2) to reproduce arterial flow^6. (Ferreira R, Santos T, Amar A, et al. MicroRNA-18a improves human cerebral arteriovenous malformation endothelial cell function. Stroke. 2014; 45(1):293-297). For hypoxic experiments, cells were cultured in a Galaxy 48R (Eppendorf) incubator at 3% O2. MicroRNAs were co-administered with Ago-2 to increase the cellular uptake of miR-18a^9 (Ferreira R, Santos T, Amar A, et al. Argonaute-2 promotes miR-18a entry in human brain endothelial cells. J Am Heart Assoc. 2014; 3(3):e000968) (FIG. 9). Methods regarding cell treatments and transfections were included in Data.
(§2) MiR-18a (hsa-miR-18a-5p, 40 nM, Dharmacon) or a scramble microRNA (40 nM, Dharmacon) in nuclease-free water was added with argonaute 2 (Ago-2, 0.4 nM, Abcam) as the microRNA carrier and stabilizer^9. (Ferreira R, Santos T, Amar A, et al. Argonaute-2 promotes miR-18a entry in human brain endothelial cells. J Am Heart Assoc. 2014; 3(3):e000968). No transfection reagent was used with miR-18a or scramble microRNA treatments. Recombinant human TSP-1 (R&D Systems) stock solution was prepared in PBS and further diluted in culture medium to be used at a final concentration of 1000 ng/mL. Cells were treated during 24 h for mRNA and 48 h for protein expression studies. NEO100 (NeOnc Technologies) stock was prepared in DMSO and used immediately or stored at −20° C.
The extraction and analysis of total mRNA and microRNAs were described^9,13. […] For mRNA studies, 02-Microglobulin (B2M) was measured for sample normalization. […]

[2] = system: BEC; assay: ELISA of control BEC supernatants
Excerpt: as §1
Small interfering RNA transfection was performed as previously described^5. Briefly, ECs were transfected with small interfering RNA (siRNA) against ID1 or PAI-1 (Thermo Fisher Scientific), or small interfering control (Santa Cruz Biotechnology) constructs using Lipofectamine RNAiMax (Thermo Fisher Scientific) per the manufacturer's instructions. Knockdown of ID1 or PAI-1 was confirmed by quantitative real-time polymerase chain reaction as described^6 (FIG. 19). The sequences of the forward and reverse primers for ID1 and PAI-1 were included in Table 2.
Plasmid constructs pcDNA3-ALK2^WT (Addgene #80870) and pcDNA3-ALK2^Q207D (Addgene #80871) were a gift from Aristidis Moustakas^7. (Meyer B, Schaller C, Frenkel C, Ebeling B, Schramm J. Distributions of local oxygen saturation and its response to changes of mean arterial blood pressure in the cerebral cortex adjacent to arteriovenous malformations. Stroke. 1999; 30(12):2623-2630) 10^4 AVM-BEC were seeded 24 h before transfection. The plasmid vector containing the 3′ untranslated region (3′UTR) of human BMP4, pRP [Exp]-Puro-CMV>Luciferase:{hBMP4_3′UTR}, was constructed and packaged by VectorBuilder. The vector ID is VB200205-1078zdv, which can be used to retrieve detailed information about the vector on vectorbuilder.com. Transient transfections were performed with Lipofectamine RNAiMax (Thermo Fisher Scientific) according to the manufacturer's instructions. After 4 h, medium was replaced by fresh medium containing microRNA.
as §2, with “C. […]” for “C.”

[3] = system: AVM-BEC; assay: RT-qPCR mRNA expression in AVM-BEC
Excerpt: as §1, §2
The extraction and analysis of total mRNA and microRNAs were described^9,13. (Ferreira R, Santos T, Amar A, et al. Argonaute-2 promotes miR-18a entry in human brain endothelial cells. J Am Heart Assoc. 2014; 3(3):e000968) (Marín-Ramos N I, Jhaveri N, Thein T Z, Fayngor R A, Chen T C, Hofman F M. NEO212, a conjugate of temozolomide and perillyl alcohol, blocks the endothelial-to-mesenchymal transition in tumor-associated brain endothelial cells in glioblastoma. Cancer Lett. 2018; 442:170-180). The Human Notch Signaling Pathway RT^2 Profiler PCR Array (Qiagen) was used to analyze the expression of 84 genes related to Notch signaling. For mRNA studies, […] (B2M) was measured for sample normalization. The primer sequences were included in Table 2. For microRNA analysis, RNU44 and U6 snRNA TaqMan microRNA Control Assays were used for normalization of human and mice samples, respectively.

[4] = control BEC supernatants, normoxia

Substance: hsa-miR-18a-5p (UAGGUGCAUCUAGUGCAGAUAG; chemistry not given here; listed as Homo sapiens) [small non-coding RNA molecule involved in post-transcriptional regulation of gene expression; Dharmacon]
- ALK1 mRNA expression ([1]; P=0.0482): decreased
- BMP4, ALK2, ALK5 and MGP mRNA expression ([1]; P>0.05): No significant differences
- HIF-1α expression ([1]; hypoxia 3% O2): remained unaltered
- HIF-1α expression ([1]; normoxia, P>0.9999): without affecting BEC
- VEGF secretion (ELISA) ([2]; BEC transfected with ALK2, P>0.9999): No significant changes
- levels of secreted PAI-1 [2, 4]: without affecting control BEC
- levels of secreted VEGF [2, 4]: without affecting control BEC
- levels of secreted VEGF ([2]; control BEC transfected with siCTL): without affecting control BEC
- BMP4 mRNA expression ([3]; AVM-BEC, 24 h, vs scramble, P=0.0022): normalized
- MMP2 mRNA expression ([3]; AVM-BEC, P=0.0004): normalized
- MMP9 mRNA expression ([3]; AVM-BEC, P=0.0091): normalized
- HIF-1α expression ([3]; AVM-BEC, hypoxia 3% O2): remained unaltered
- HIF-1α expression ([3]; AVM-BEC, normoxia): significantly (P=0.0025) decreased
- ALK2 mRNA expression ([3]; AVM-BEC, vs scramble, P<0.0001): normalized
- MGP mRNA expression ([3]; AVM-BEC, vs scramble, P<0.0001): normalized
- ALK1 mRNA expression ([3]; AVM-BEC, vs scramble, P=0.0013): normalized
- ALK5 mRNA expression ([3]; AVM-BEC, vs scramble, P=0.0072): normalized
- BMP9 mRNA expression ([3]; non-HHT related AVM-BEC, P>0.05): No significant differences
